Assay results reported in patent US4150970A, “Growth regulator for plants” (Board of Trustees of Michigan State University, priority 1977, dated 1979).

Columns and labels:
[1] = tested on: oat first-internode; settings: published reports; cited from earlier work
[2] = tested on: plants; test: Plant growth regulation (general statement); format: in vivo; settings: analogous compounds
[3] = tested on: tobacco callus; test: Growth of tobacco callus, triacontanol and octocosanol (Example XIX, FIG. 6); format: cell-based, Nicotiana tabacum, var. Wisconsin 38; settings: four concentrations, 10 days
Method: Cell cultures were separately grown in disposable petri dishes.
1. Haploid tobacco (Nicotiana tabacum, var. Wisconsin 38)
The cultures were grown on the basic medium of mineral salts described by Linsmaier and Skoog (Physiol. Plant, […] (1965)). Vitamins and hormones varied for each tissue (Table X-1) to maintain the tissues in an undifferentiated state. For all of the tissues inositol was 100 mg/liter and agar 1%. Sucrose was 3% for all but the bean which was 2%.
Callus was produced from pith for tobacco, potato and tomato. Bean callus was produced from hypocotyl sections and barley callus from immature ovarian tissue. Subcultures were maintained on the appropriate media.
Stock solutions of triacontanol were prepared at a concentration of 100 μg/ml. The solvent used was glass distilled benzene. The lower concentrations were obtained by serial dilutions. Treatments were applied to 4.5 cm Whatman #1 filter paper disks in 100 μl aliquots. Controls received 100 μl of glass distilled benzene. The solvent was evaporated for approximately 15 minutes and the filter papers were then placed on the agar medium.
Callus tissue was then broken into pieces of approximately the same size (10 mg) and placed in the petri dishes on the treated filter paper (one piece per dish). For experiments conducted in the light the intensity was approximately 2.0 microwatts/cm^2 -namometer. Fresh weight measurements were made after 12 days of growth.
A stock solution of octocosanol (CH3 (CH2)26 CH2 OH was prepared in the same manner as the triacontanol solutions above described.
The effect of four concentrations of triacontanol and octocosanol on tobacco callus was determined, using the materials and procedures above described in this Example. The dishes were tared and weighed at the end of 10 days. The results are illustrated in FIG. 6 of the drawings.

SMILES | growth, oat first-internode method [1] | effect as plant growth regulator [2] | growth over the control [3]
CCCCCCCCCCCCCCCCCCCCCCO [1-docosanol, reference compound] | increase growth |  | 
CCCCCCCCCCCCCCCCCCCCCCCCCCCC(=O)O [octocosanoic acid] |  | ineffective | 
CCCCCCCCCCCCCCCCCCCCCCCCCCCCO [octocosanol, reference compound] |  | ineffective | no effect on growth
CCCCCCCCCCCCCCCCCCCCCCCCCCCCCC [triacontane] |  | ineffective | 
